Entries after “also recorded” stand apart in the source; their conditions may differ. Where two headings read alike, the source gives them in different places.
Experiments:
[1] = target: IBV endonuclease (full-length IBV RdRp complex PA/PB1/PB2) (Influenza B virus, UniProt Q5V8Z9); test: biochemical
[2] = target: SFTSV endonuclease (full-length L protein) (Dabie bandavirus, UniProt I0DF35); test: biochemical; parameters: species or system severe fever with thrombocytopenia syndrome virus
[3] = target: SNV endonuclease (full-length L protein) (Sin Nombre orthohantavirus, UniProt A0A059WLS4); test: biochemical; parameters: species or system Sin Nombre virus
IBV RdRp (RNA synthesis) = type: biochemical, influenza B virus
[4] = target: SFTSV L protein (RNA synthesis) (Dabie bandavirus, UniProt I0DF35); type: biochemical, severe fever with thrombocytopenia syndrome virus
[5] = tested on: SNV L protein (RNA synthesis); type: biochemical, Sin Nombre virus

Row | Compound | IC50 ([1]; IC50 (μM) IBV (Figure 7B)) [µM] | IC50 ([2]; IC50 (μM) SFTSV (Figure 7B)) [µM] | IC50 ([3]; IC50 (μM) SNV (Figure 7B)) [µM] | inhibition of RNA synthesis by IBV (IBV RdRp (RNA synthesis)) | inhibition of RNA synthesis by SFTSV [4] | inhibition of RNA synthesis by SNV [5] | IC50 ([1]; IC50, endonuclease activity of IBV) [µM] | IC50 ([2]; IC50, SFTSV endonuclease activity) [µM] | concentration from which inhibition of SNV endonuclease became evident [3] | IC50 ([3]; IC50, SNV endonuclease activity) [µM] | IC50 [1] [µM]
1 | O=C1c2c(O)c(=O)ccn2N(C2c3ccccc3SCc3c2ccc(F)c3F)C2COCCN12 [kCOT909, (R)-12-((R)-7,8-difluoro-6,11-dihydrodibenzo[b,e]thiepin-11-yl)-7-hydroxy-3,4,12,12a-tetrahydro-1H-[1,4]oxazino[3,4c]pyrido[2,1-f] [1,2,4]triazine-6,8-dione] | 0.32 ± 0.006 | > 100 | > 100 | lack of inhibition of RNA synthesis | lack of inhibition of RNA synthesis | lack of inhibition of RNA synthesis |  |  |  |  | 
2 | O=C1c2c(O)c(=O)ccn2N([C@@H]2c3ccccc3SCc3c2ccc(F)c3F)[C@@H]2COCCN12 [BXA, Baloxavir acid, reference compound] | 0.21 ± 0.006 | 16 | > 100 | lack of inhibition of; also recorded: did not inhibit RNA synthesis | lack of inhibition of; also recorded: did not inhibit RNA synthesis | lack of inhibition of; also recorded: did not inhibit RNA synthesis | 0.209 | 16.5 | ~ 250 µM | 622 | 
3 | CC(C)N1CN([C@H]2c3ccccc3SCc3c2ccc(F)c3F)n2ccc(=O)c(O)c2C1=O [kCPF855] |  | > 100 | > 100 | lack of inhibition of RNA synthesis | lack of inhibition of RNA synthesis | lack of inhibition of RNA synthesis |  |  |  |  | 0.71 ± 0.03
4 | O=C(O)c1cn2c(c(O)c1=O)C(=O)N1CCOC[C@H]1N2[C@@H]1c2ccccc2SCc2c1ccc(F)c2F [kCOT923, (R)-12-((S)-7,8-difluoro-6,11-dihydrodibenzo[b,e]thiepin-11-yl)-7-hydroxy-6,8-dioxo-3,4,6,8,12,12a-hexahydro-1H-[1,4]oxazino[3,4-c]pyrido[2,1-f][1,2,4]triazine-9-carboxylic acid] |  | 41 | 13 ± 3 | lack of inhibition of RNA synthesis | lack of inhibition of RNA synthesis | lack of inhibition of RNA synthesis |  |  |  |  | 0.41 ± 0.02
5 | O=C1c2c(O)c(=O)ccn2N([C@@H]2c3ccccc3CSc3ccccc32)[C@@H]2COCCN12 [kCOT912, (R)-12-((R)-6,11-dihydrodibenzo[b,e]thiepin-11-yl)-7-hydroxy-3,4,12,12a-tetrahydro-1H-[1,4]oxazino[3,4-c]pyrido[2,1-f][1,2,4]triazine-6,8-dione] |  | > 100 | > 100 | lack of inhibition of RNA synthesis | lack of inhibition of RNA synthesis | lack of inhibition of RNA synthesis |  |  |  |  | > 100

Reference: paper PMC11946187 (Viruses, 2025)
